Entries after “also recorded” stand apart in the source; their conditions may differ. Read-outs that look alike come from different tables or passages of the source.
Tests used:
[1] = system: chronic heart failure mice; experiment: Pharmacodynamic comparison of LCZ696 and compound 2 in chronic heart failure mice (echocardiography); assay type: in vivo; conditions: for CO / EF / FS / HR: Compound 2 group; for EF, day 28 vs day 0 (words) / short-axis shortening rate (FS %), day 28 vs day 0 (words): chronic heart failure mice, p<0.0005 (FIG. 8)
Description: With EF<50%, chronic heart failure mice were selected.
The mice were detected by cardiac ultrasound after 28 days of administration.

[2] = Metabolic stability in human liver microsomes; assay type: in vitro ADME
Protocol: Preparation of the test sample: Compound 1 (prepared in Example 5), 2 (prepared in Example 4), and 5 (cycloastragenol, purchased from Chengdu Jintaihe Company) were dissolved with an appropriate amount of DMSO to obtain a concentration of 10 mM solution.
1) The compound was diluted with DMSO to 0.5 mM, and diluted to 1/20 with PBS before the experiment.
2) Human liver microsomes and potassium phosphate buffer were added to the EP tube respectively and mixed by gentle shaking.
3) Pre-incubate the EP tube in a metal bath at 37° C. for 5 minutes. 4) Compound 1, 2 or 5 were added and incubated at 37° C.
5) Take 100 μl of sample from the tube at 0, 60, 120, 240, and 360 minutes respectively, and add the sample to the stop tube (containing 100 μl of cooled acetonitrile solution). The mixture was shaken vigorously to terminate the reaction and then placed it in a −30° C. refrigerator until analysis.
6) Centrifuge at 14300 r/min and 4° C. for 10 minutes, aspirate the supernatant and place it in a −30° C. refrigerator until analysis.
Column: Shim-pack XR-ODS II, 2.0×75 mm; mobile phase: mobile phase B: aqueous solution containing 0.2% formic acid; mobile phase A: acetonitrile solution; mobile phase ratio: […]

[3] = Plasma pharmacokinetics after single intravenous injection in rats; assay type: in vivo; conditions: rat, intravenous 2 mg/kg, Mean ± SD; for concentration at 0.05 h: read-out: C0.05; for MRT inf: read-out: MRT0-∞; for Vd: read-out: Vz
Protocol: Strain: SD rat; Gender: half male and female. Weight: about 200-250 g. Source: Shanghai Slac Laboratory Animal Co., Ltd. Laboratory Animal Production License No.: SOCK (Shanghai) 2017-0005. Laboratory Animal Use License Certificate number: SYXK (Shanghai) 2014-0018. Breeding: constant temperature purification and ventilation animal room, 20-26° C., free food and water, humidity 40-70%, light for 12 h.
Route B: single intravenous injection. Volume: calculated according to 5 mL/kg body weight. Preparation: an appropriate amount of compound 2 is dissolved in 3% total volume of DMSO. 3% total volume of castor oil is added to the solution and mixed by vortexing, an appropriate amount of normal saline is added to form an intravenous drug solution (0.4 mg/mL clear solution).
12 SD rats were divided into 2 groups, 6 rats in each group, […]. Fasting for 12 h before administration, free drinking water. The doses of 10 mg/kg were administered as a single gavage, and the doses of 2 mg/kg were administered as a single intravenous injection. About 100 μL orbital blood was collected before administration, 3 min, 10 min, 20 min, 30 min, 1 h, 2 h, 3 h, 4 h, 6 h, 8 h, 11 h, and 24 h after administration. For intravenous administration, orbital blood was collected before administration, 3 min, 8 min, 15 min, 30 min, 1 h, 2 h, 3 h, 4 h, 6 h, 8 h, 11 h, 24 h after injection. The blood was anticoagulated with 1% heparin, centrifuged at 8000 rpm for 4 min, and the plasma was separated. Store at −20° C. High concentration samples were diluted with blank plasma. 2.1.4 Determination method of plasma samples 2.1.4.1 Instrument (LC-MS/MS)
Liquid chromatography system: Ultimate3000 liquid chromatography system (including Ultimate3000 ternary infusion pump, Ultimate3000 column oven, Ultimate3000 autosampler and Ultimate3000 vacuum degasser), Dionex Corporation. MS/MS system: 4000 Q-Trap tandem mass spectrometer with electrospray ionization source (ESI source), AB Company
Column: Athena C18-WP 100A (2.1×50 mm, 5 μm); Injection volume: 10 μL; Mobile phase: A: acetonitrile; C: 0.05% ammonia, gradient elution (see table below); Flow rate: 0.3 mL/min
The ion source is electrospray ionization source (ESI), the drying gas (N2) temperature is 500° C., the electrospray voltage is −4500 V, the detection method is negative ion detection, the scanning method is the […] (MRM) method and the scanning time is 0.15 s. The mass spectrometry parameters are as follows:
50 μL of rat whole blood was added with 2.5 μL of internal standard working solution (250 ng/mL tolbutamide). 150 μL of acetonitrile was used to precipitate the proteins. The sample was centrifuged at 13,000 rpm and 4° C. for 5 min. The upper organic phase was taken and filtered with a 0.22 μM microporous membrane, which was then analyzed by LC-MS/MS.

[4] = chronic heart failure mice (FIG. 9)

SMILES: CC(C)(O)[C@@H]1CC[C@](C)([C@H]2[C@@H](O)C[C@@]3(C)[C@@H]4C[C@H](O)[C@H]5C(C)(C)C(F)(F)CC[C@@]56C[C@@]46CC[C@]23C)O1 [Compound 2, (2aR,3R,4S,5aS,5bS,7S,7aR,11aR,12aS)-9,9-difluoro-3-((2R,5S)-5-(2-hydroxypropan-2-yl)-2-methyltetrahydrofuran-2-yl)-2a,5a,8,8-tetramethyltetradecahydro-1H,12H-cyclopenta[a]cyclopropa[e]phenanthrene-4,7-diol]
- CO ([1]; Day 0): 33.39 ± 2.45 mL/min
- EF ([1]; Day 0): 25.04 ± 1.87%
- FS ([1]; Day 0): 9.65 ± 0.84 %
- HR ([1]; Day 0): 564.5 ± 14.96 times/min
- CO ([1]; Day 28): 48.09 ± 3.69 mL/min
- EF ([1]; Day 28): 43.83 ± 3.62 %
- FS ([1]; Day 28): 18.86 ± 2.17%
- HR ([1]; Day 28): 579.3 ± 12.44 times/min
- Cardiac output per minute (CO), day 28 vs day 0 (words) [1, 4]: significantly improved
- Heart rate (HR), day 28 vs day 0 [1, 4]: no significant change
- Cardiac output per minute (CO), day 28 vs day 0 (words) ([1]; chronic heart failure mice (FIG. 9), listed as compound 2): increased significantly
- EF, day 28 vs day 0 (words) [1]: significantly improved
- short-axis shortening rate (FS %), day 28 vs day 0 (words) [1]: significantly improved
- EF, day 28 vs day 0 (words) ([1]; listed as compound 2): significantly increased
- short-axis shortening rate (FS %), day 28 vs day 0 (words) ([1]; listed as compound 2): more significant
- left ventricular ejection fraction EF % increased by ([1]; compound 2 group, after 28 days of administration): 75.04%
- metabolic stability in human liver microsomes ([2]; compared with compound 5 (cycloastragenol)): relatively stable; also recorded: more stable than cycloastragenol
- half-life at 5 µM ([2]; human, liver microsomes, 5 μM compound, 1 mg/mL microsomes, 37° C.): 7.3 h
- AUC0-t ([3]; both sexes, all rats (♂ and ♀)): 1590 ± 585 ng·h/mL
- AUC(0-inf) ([3]; both sexes, all rats (♂ and ♀)): 1660 ± 656 ng·h/mL
- clearance ([3]; both sexes, all rats (♂ and ♀)): 23 mL/min/kg
- half-life ([3]; both sexes, all rats (♂ and ♀)): 1.18 ± 0.41 h
- concentration at 0.05 h ([3]; both sexes, all rats (♂ and ♀)): 1460 ± 232 ng/mL
- MRT inf ([3]; both sexes, all rats (♂ and ♀)): 1.55 ± 0.59 h
- Vd ([3]; both sexes, all rats (♂ and ♀)): 2.13 ± 0.38 L/kg
- AUC0-t ([3]; female, rats ♀): 2120 ± 114 ng·h/mL
- AUC(0-inf) ([3]; female, rats ♀): 2250 ± 206 ng·h/mL
- clearance ([3]; female, rats ♀): 14.9 mL/min/kg
- half-life ([3]; female, rats ♀): 1.47 h
- concentration at 0.05 h ([3]; female, rats ♀): 1390 ± 250 ng/mL
- MRT inf ([3]; female, rats ♀): 2.03 ± 0.41 h
- Vd ([3]; female, rats ♀): 1.86 ± 0.348 L/kg
- AUC0-t ([3]; male, rats ♂): 1060 ± 113 ng·h/mL
- AUC(0-inf) ([3]; male, rats ♂): 1080 ± 106 ng·h/mL
- clearance ([3]; male, rats ♂): 31 mL/min/kg
- half-life ([3]; male, rats ♂): 0.9 h
- concentration at 0.05 h ([3]; male, rats ♂): 1540 ± 233 ng/mL
- MRT inf ([3]; male, rats ♂): 1.07 ± 0.09 h
- Vd ([3]; male, rats ♂): 2.39 ± 0.168 L/kg

From patent US20220177511A1, “SERIES OF HALOGENATED TETRACYCLIC TRITERPENE DERIVATIVES AND THEIR PREPARATION AND APPLICATION” (SHANGHAI KING-X BIOTECH CO., LTD, priority 2019, published 2022)
